Legend:
[1] = tested on: TNF-α; test: TNF-α expression in LPS-treated macrophages (ELISA); format: cell-based, C57BL/6 mice; settings: macrophages treated with lactic acid bacteria and LPS for 24 hours
Experimental: (§1) C57BL/6 mice (male, 6 weeks old, 20-23 g) were subjected to an intraperitoneal injection of 2 ml of sterile 4% thioglycolate solution, and after 96 hours, the mice were anesthetized and injected with 8 ml of RPMI 1640 medium through the peritoneal cavity. Then, after 5-10 minutes, the RPMI medium (macrophages) in the mouse peritoneal cavity was extracted, centrifuged at 1000 g for 10 minutes, and washed again with RPMI 1640 medium twice. Macrophages were seeded in 24-well plates at a count of 0.5×10^6 in each well, and treated with lactic acid bacteria and LPS, an inflammatory response-inducing substance, for 24 hours. TNF-α and IL-10 cytokine expression amount in the culture supernatant was then measured by ELISA Kit.

[2] = tested on: IL-10; test: IL-10 expression in LPS-treated macrophages (ELISA); format: cell-based, C57BL/6 mice; settings: macrophages treated with lactic acid bacteria and LPS for 24 hours
Experimental: as §1

[3] = tested on: Neuropeptide Y (NPY); test: Neuropeptide Y (NPY) expression in PC12 phaeochromocytoma cells; format: cell-based; settings: LPS 200 ng/ml; lactic acid bacteria 1×10^4 CFU/ml; 24 hr
Experimental: PC12 cells obtained from the Korean Cell Line Bank were cultured in DMEM medium supplemented with 10% FBS and 1% antibiotics, and dispensed at 1×10^6 cells per well in a 12-well plate. Then, LPS (200 ng/ml) was added to each well along with lactic acid bacteria (1×10^4 CFU/ml) and incubated for 24 hr. The cells and supernatants were collected, sonicated and centrifuged, and the amount of NPY in the supernatant was measured by ELISA kit.

[4] = Antioxidant activity (DPPH, in vitro); format: biochemical; settings: DPPH 0.2 mM; lactic acid bacteria suspension 1×10^8 CFU/ml; 37° C. 20 min
Experimental: DPPH (2,2-Diphenyl-1-picrylhydrazyl) was dissolved in ethanol to a concentration of 0.2 mM to prepare DPPH solution. Lactic acid bacteria suspension (1×10^8 CFU/ml) or vitamin C solution (1 g/ml) was added to 0.1 ml of the above DPPH solution and incubated at 37° C. for 20 min. The culture was centrifuged at 3000 rpm for 5 min to obtain a supernatant. The absorbance of the supernatant was then measured at 517 nm and the antioxidant activity of the lactic acid bacteria was calculated.

[5] = tested on: gut microbiota; test: LPS production in gut microbiota (ELISA); format: cell-based; settings: human feces culture; lactic acid bacteria 1×10^6 CFU/mL; anaerobic 24 hr
Experimental: Fresh human feces were suspended in anaerobic medium (GAM, Nissui Pharmaceutical Co., Ltd., Japan) and allowed to stand for 10 min. The supernatant was diluted with 10,000-fold anaerobic medium, 0.05 mL of the dilution was transplanted into 5 mL of freshly made anaerobic medium, and lactic acid bacteria (1×10^6 CFU/mL) were implanted and incubated anaerobically for 24 hr.

[6] = tested on: BDNF; test: BDNF expression in SH-SY5Y cells; format: cell-based; settings: LPS 200 ng/ml; lactic acid bacteria 1×10^4 CFU/ml; 24 h
Experimental: SH-SY5Y cells obtained from the Korean Cell Line Bank were cultured in DMEM medium supplemented with 10% FBS and 1% antibiotics, and dispensed at 2×10^6 cells per well in a 12-well plate. Then, LPS (200 ng/ml) was added to each well along with lactic acid bacteria (1×10^4 CFU/ml) and incubated for 24 h. The cells and supernatants were collected, sonicated and centrifuged, and the amount of BDNF in the supernatant was measured by ELISA kit.

[7] = tested on: Clostridium difficile; test: Clostridium difficile proliferation in gut microbiota (PCR); format: cell-based; settings: human feces culture; lactic acid bacteria 1×10^6 CFU/mL; anaerobic 24 hr
Experimental: Fresh human feces were suspended in anaerobic medium (GAM, Nissui Pharmaceutical Co., Ltd., Japan) and allowed to stand for 10 min. The supernatant was diluted with 10,000-fold anaerobic medium, 0.05 mL of the dilution was transplanted into 5 mL of freshly made anaerobic medium, and lactic acid bacteria (1×10^6 CFU/mL) were implanted and incubated anaerobically for 24 hr. This culture medium was divided into two, one was centrifuged (5000 rpm, 20 minutes), the precipitated DNA was isolated using the QIAamp DNA stool mini kit (Qiagen, Germany), and Clostridium difficile (primer: forward, 5′-[…]-3′ (SEQ ID NO: 4); reverse, 5′-[…]-3′ (SEQ ID NO: 5) was quantified by PCR. The reaction product was first treated at 95° C. for 30 seconds, followed by 42 cycles of 5 seconds at 95° C. and 30 seconds at 72° C. for analysis. In addition, one culture medium was sonicated, centrifuged, and filter-sterilized, and the amount of LPS in the supernatant was measured using an ELISA kit.

Row | Substance | Macrophage Inhibition of TNF-α expression [1] | Macrophage Induction of IL-10 expression [2] | PC12 cell Induction of NPY expression [3] | Antioxidant activity [4] | Gut microbiota Inhibition of LPS production [5] | SHSY5Y cell Induction of BDNF expression [6] | Gut microbiota Inhibition of difficile bacteria proliferation [7]
1 | Bifidobacterium adolescentis NK220 | + (weakly (+; >20-60%)) | + (weakly (+; >20-60%)) | − (not or less than 20% (−; <20%)) | + (weakly (+; >20-60%)) | − (not or less than 20% (−; <20%)) | + (weakly (+; >20-60%)) | + (weakly (+; >20-60%))
2 | Bifidobacterium adolescentis NK221 | − (not or less than 20% (−; <20%)) | − (not or less than 20% (−; <20%)) | + (weakly (+; >20-60%)) | + (weakly (+; >20-60%)) | + (weakly (+; >20-60%)) | − (not or less than 20% (−; <20%)) | + (weakly (+; >20-60%))
3 | Bifidobacterium adolescentis NK222 | + (weakly (+; >20-60%)) | + (weakly (+; >20-60%)) | + (weakly (+; >20-60%)) | + (weakly (+; >20-60%)) | + (weakly (+; >20-60%)) | − (not or less than 20% (−; <20%)) | + (weakly (+; >20-60%))
4 | Bifidobacterium bifidum NK223 | + (weakly (+; >20-60%)) | + (weakly (+; >20-60%)) | − (not or less than 20% (−; <20%)) | + (weakly (+; >20-60%)) | − (not or less than 20% (−; <20%)) | + (weakly (+; >20-60%)) | − (not or less than 20% (−; <20%))
5 | Bifidobacterium bifidum NK224 | − (not or less than 20% (−; <20%)) | − (not or less than 20% (−; <20%)) | + (weakly (+; >20-60%)) | + (weakly (+; >20-60%)) | + (weakly (+; >20-60%)) | − (not or less than 20% (−; <20%)) | + (weakly (+; >20-60%))
6 | Bifidobacterium longum NK217 | + (weakly (+; >20-60%)) | – | − (not or less than 20% (−; <20%)) | + (weakly (+; >20-60%)) | − (not or less than 20% (−; <20%)) | − (not or less than 20% (−; <20%)) | − (not or less than 20% (−; <20%))
7 | Bifidobacterium pseudocatenulatum NK229 | + (weakly (+; >20-60%)) | – | − (not or less than 20% (−; <20%)) | + (weakly (+; >20-60%)) | − (not or less than 20% (−; <20%)) | + (weakly (+; >20-60%)) | − (not or less than 20% (−; <20%))
8 | Lactobacillus gasseri NK188 | + (weakly (+; >20-60%)) | + (weakly (+; >20-60%)) | − (not or less than 20% (−; <20%)) | + (weakly (+; >20-60%)) | – | − (not or less than 20% (−; <20%)) | + (weakly (+; >20-60%))
9 | Lactobacillus paracasei NK190 | − (not or less than 20% (−; <20%)) | − (not or less than 20% (−; <20%)) | + (weakly (+; >20-60%)) | + (weakly (+; >20-60%)) | – | − (not or less than 20% (−; <20%)) | + (weakly (+; >20-60%))
10 | Lactobacillus paracasei NK191 | − (not or less than 20% (−; <20%)) | + (weakly (+; >20-60%)) | + (weakly (+; >20-60%)) | + (weakly (+; >20-60%)) | – | + (weakly (+; >20-60%)) | − (not or less than 20% (−; <20%))
11 | Lactobacillus paracasei NK192 | − (not or less than 20% (−; <20%)) | − (not or less than 20% (−; <20%)) | − (not or less than 20% (−; <20%)) | ++ (strongly (++; >60-90%)) | – | − (not or less than 20% (−; <20%)) | − (not or less than 20% (−; <20%))
12 | Lactobacillus sakei NK199 | + (weakly (+; >20-60%)) | – | − (not or less than 20% (−; <20%)) | + (weakly (+; >20-60%)) | − (not or less than 20% (−; <20%)) | − (not or less than 20% (−; <20%)) | − (not or less than 20% (−; <20%))
13 | Lactococcus graminis NK206 | − (not or less than 20% (−; <20%)) | − (not or less than 20% (−; <20%)) | + (weakly (+; >20-60%)) | + (weakly (+; >20-60%)) | – | – | –
14 | Lactococcus graminis NK207 | – | – | − (not or less than 20% (−; <20%)) | − (not or less than 20% (−; <20%)) | + (weakly (+; >20-60%)) | − (not or less than 20% (−; <20%)) | + (weakly (+; >20-60%))

Reference: patent publication US20250009819A1, “NOVEL PROBIOTICS AND USE THEREOF” (PBLBIOLAB CO., LTD., priority 2021, published 2025)
